Reference: US20110020470A1, “METHODS AND COMPOSITIONS FOR TREATING CANCER” (SOUND PHARMACEUTICALS INCORPORATED, priority 2005, published 2011)

Key:
[1] = test system: mammalian ovarian cancer cell lines; experiment: MTT cytotoxicity study, statements over all ovarian cancer cell lines tested; type: cell-based
Procedure: (§1) Each of the cell lines listed above was plated at a density of 3,500 cells per well in 96 well plates and incubated at 37° C. for 24 hours. […] After the one hour incubation, 50 μl of cisplatin and paclitaxel were added to the cell lines at the various concentrations shown in TABLE 2 to achieve an IC50 in the absence of other drugs. The cells were then incubated at 37° C. in 5% CO2 in the presence of the cisplatin and paclitaxel for an additional 67-72 hours.
(§2) After the 67-72 hour incubation period, 10 μl of MTT (3-(4,5-dimethlythiazol-2-yl)-2,5-diphenyl […] bromide) working solution was added to each well (based on the instructions in the Chemicon MTT Cell Growth Kit Cat #CT01) and the cells were incubated for 4 hours. 100 μl of isopropanol/HCl solution was then added to each well and absorbance at 570 nm was measured.

[2] = test system: NuTu-19 ovarian cancer cells; experiment: MTS cell viability assay, cultured NuTu-19 cells; type: cell-based, rat; settings: for effect on the ability of cisplatin to kill NuTu-19 cells: with cisplatin 43 μM, FIG. 2 and 3
Procedure: NuTu-19 cells were plated at a density of 3,000 cells per well in 96 well culture dishes, and incubated at 37° C., in the presence of 5% carbon dioxide, for 24 hours. […] The NuTu-19 cells were then rinsed with media and incubated in the presence of cisplatin for an additional 24 hours.
The NuTu-19 cells were then rinsed twice with phosphate buffered saline (PBS), then MTS assays were performed to measure the number of living cells. MTS is an abbreviation for (3-(4,5-dimethylthiazol-2-yl)-5-(3-carboxymethoxyphenyl)-2-(4-sulfophenyl)-2H-tetrazolium. The MTS assay is a colorimetric method for determining the number of viable cells based upon physiologic catabolism of MTS to a formazan product that is soluble in tissue culture medium. The absorbance of the formazan product at 490 nm can be measured directly from a 96 well plate using a plate reader. Increased absorbance at 490 nm correlates with increased production of formazan in a well. This is typically due to more viable cells present in a well.

[3] = test system: rSPI-tu epithelial ovarian cancer cells; experiment: MTT cytotoxicity study with ebselen and allopurinol; type: cell-based, rat; settings: each drug 100 μM, no cisplatin/paclitaxel
Procedure: as §1, with “The cells were then incubated at 37° C. in 5% CO2 in the presence of the cisplatin and paclitaxel for an additional 67-72 hours.” left out
as §2, with “[…],” for “After the 67-72 hour incubation period,”

[4] = test system: ES-2 clear cell carcinoma ovarian cancer cells; experiment: as above; type: cell-based, human; settings: each drug 100 μM, no cisplatin/paclitaxel
Procedure: as §1, with “67-72 hours. Control wells were included as follows: no drug, ebselen, allopurinol, ebselen and allopurinol, and cisplatin/paclitaxel.” for “67-72 hours.”
as §2, with “measured. The results of the MTT assay for the different ovarian cancer cell lines tested are shown in FIGS. 9A-16C and are summarized below in TABLE 3.” for “measured.”

[5] = test system: SKOV-3 adenocarcinoma ovarian cancer cells; experiment: as above; type: cell-based, human; settings: each drug 100 μM, no cisplatin/paclitaxel
Procedure: as §1, with “67-72 hours. Control wells were included as follows: no drug, ebselen, allopurinol, ebselen and allopurinol, and cisplatin/paclitaxel.” for “67-72 hours.”
as §2, with “measured. The results of the MTT assay for the different ovarian cancer cell lines tested are shown in FIGS. 9A-16C and are summarized below in TABLE 3.” for “measured.”

[6] = test system: CAOV-3 adenocarcinoma ovarian cancer cells; experiment: as above; type: cell-based, human; settings: each drug 100 μM, no cisplatin/paclitaxel
Procedure: as §1, with “67-72 hours. Control wells were included as follows: no drug, ebselen, allopurinol, ebselen and allopurinol, and cisplatin/paclitaxel.” for “67-72 hours.”
as §2, with “measured. The results of the MTT assay for the different ovarian cancer cell lines tested are shown in FIGS. 9A-16C and are summarized below in TABLE 3.” for “measured.”

[7] = test system: OVCAR-3 adenocarcinoma ovarian cancer cells; experiment: as above; type: cell-based, human; settings: each drug 100 μM, no cisplatin/paclitaxel
Procedure: as §1, with “67-72 hours. Control wells were included as follows: no drug, ebselen, allopurinol, ebselen and allopurinol, and cisplatin/paclitaxel.” for “67-72 hours.”
as §2, with “measured. The results of the MTT assay for the different ovarian cancer cell lines tested are shown in FIGS. 9A-16C and are summarized below in TABLE 3.” for “measured.”

[8] = test system: TOV-112D adenocarcinoma/endometroid carcinoma ovarian cancer cells; experiment: as above; type: cell-based, human; settings: each drug 100 μM, no cisplatin/paclitaxel
Procedure: as §1, with “67-72 hours. Control wells were included as follows: no drug, ebselen, allopurinol, ebselen and allopurinol, and cisplatin/paclitaxel.” for “67-72 hours.”
as §2, with “measured. The results of the MTT assay for the different ovarian cancer cell lines tested are shown in FIGS. 9A-16C and are summarized below in TABLE 3.” for “measured.”

[9] = test system: OV-90 papillary serous adenocarcinoma ovarian cancer cells; experiment: as above; type: cell-based, human; settings: each drug 100 μM, no cisplatin/paclitaxel
Procedure: as §1, with “67-72 hours. Control wells were included as follows: no drug, ebselen, allopurinol, ebselen and allopurinol, and cisplatin/paclitaxel.” for “67-72 hours.”
as §2, with “measured. The results of the MTT assay for the different ovarian cancer cell lines tested are shown in FIGS. 9A-16C and are summarized below in TABLE 3.” for “measured.”

[10] = patients receiving cisplatin; Helson 1978; cited from earlier work
NuTu-19 tumors = experiment: NuTu-19 ovarian cancer tumor model in F-344 rats, tumor response; type: in vivo, rat
Procedure: An ovarian cancer tumor model was established in rats by injection of 10^7 NuTu-19 cells into the peritoneal cavity of 8-10 week old female F-344 rats. Rats with injected NuTu-19 cells were allowed to develop tumor burden for two weeks prior to cisplatin treatment. A control series of 10 rats was evaluated separately for the development of ovarian tumor burden under the described conditions. All rats in the control series were sacrificed 5 weeks after NuTu-19 tumor cell injection and tumor burden was evaluated.
The absence of ascites, but presence of more than 5 visible tumor nodules (each >0.5 mm) in the peritoneal cavity was considered to be an indication that the cancer partially responded to the treatment. The absence of ascites and presence of fewer than 5 visible tumor nodules (each >0.5 mm) was considered to be an indication that the cancer fully responded to the treatment.

non-cancer cell line = settings: Baldew et al. 1992; cited from earlier work
[11] = test system: rats treated with cisplatin; experiment: Auditory Evoked Brainstem Response (ABR), permanent threshold shift after cisplatin; type: in vivo, rat; settings: 8, 16, 24, 32 kHz; ebselen 16 mg/kg i.p. plus cisplatin 16 mg/kg i.p., versus cisplatin without ebselen; 72 hours; FIG. 6
Procedure: (§3) Auditory Evoked Brainstem Response (ABR) was used to assess hearing in rats before and after exposure to cisplatin and chemoprotectants. Ebselen or DMSO (control vehicle) were introduced intraperitoneally into rats one hour before intraperitoneal administration of cisplatin at a dosage of 16 mg/kg body weight. Seventy-two hours after delivery of cisplatin, ABR data were collected, animals were sacrificed, cochleae were collected, dissected, stained with FITC-phalloidin (to detect F-Actin in hair cells), and DAPI (to detect nuclear DNA).
Ten cochlea were tested per treatment. The PTS is a measure of hearing loss.
Four cochlea were tested per treatment.

[12] = treatment of acute ischemic stroke; cited from earlier work
inner ear hair cells = experiment: Cochlea explant culture, inner ear hair cell count (calbindin/DAPI); type: cell-based, mouse; settings: FIG. 5
Procedure: Three cochlea per treatment, obtained from P3-4 mouse pups, were cultured in 0.4 micrometer MilliCell-CM inserts with NeuroBasal A medium plus B27 supplement. After 24 hours in culture, ebselen was added to the medium, incubated for ten minutes, and then cisplatin was added to the medium at a final concentration of 43 μM. A first control treatment included 43 μM cisplatin. A second control treatment included 47 μM ebselen without the addition of cisplatin. All cultures were incubated for 24 hours at 37° C. in 5% carbon dioxide.
The explants were then harvested, fixed, and stained with calbindin (which detects hair cells) and DAPI (4′,6-Diamindino-2-phenylindole; for detection of nuclear DNA).

[13] = test system: cochlear outer hair cells; experiment: Count of outer auditory hair cells in excised cochleae after cisplatin; type: in vivo, rat; settings: cisplatin and ebselen versus cisplatin, saline and DMSO; FIG. 8A, 8B
Procedure: as §3
Additionally, cochleae were excised from rats treated with the combination of cisplatin and ebselen as described in this Example. Cochleae were also excised from rats treated with cisplatin and saline and DMSO (control). The number of outer auditory hair cells in the excised cochlea were counted at intervals of 0.1 mm along the cochlea. Representative results from a control rat and a treated rat are shown in FIG. 8A and FIG. 8B, respectively.

[14] = test system: TOV-21G adenocarcinoma/clear cell carcinoma ovarian cancer cells; experiment: MTT cytotoxicity study with ebselen and allopurinol; type: cell-based, human; settings: each drug 100 μM, no cisplatin/paclitaxel
Procedure: as §1, with “67-72 hours. Control wells were included as follows: no drug, ebselen, allopurinol, ebselen and allopurinol, and cisplatin/paclitaxel.” for “67-72 hours.”
as §2, with “measured. The results of the MTT assay for the different ovarian cancer cell lines tested are shown in FIGS. 9A-16C and are summarized below in TABLE 3.” for “measured.”

[15] = all cell lines tested, concentration range from 20 μM to 100 μM

SMILES | cytotoxicity on the ovarian cancer cell lines [1, 15] | effect on the ability of cisplatin to kill NuTu-19 cells [2] | Percent live cells after 96 hour drug treatment [3] [%] | Percent live cells after 96 hour drug treatment [4] [%] | Percent live cells after 96 hour drug treatment [5] [%] | Percent live cells after 96 hour drug treatment [6] [%] | Percent live cells after 96 hour drug treatment [7] [%] | Percent live cells after 96 hour drug treatment [8] [%] | Percent live cells after 96 hour drug treatment [9] [%] | further results
Oc1ncnc2[nH]ncc12 [allopurinol] | did not have a toxic effect | does not inhibit the ability of cisplatin to kill NuTu-19 ovarian cancer tumor cells | ~80 | ~90 | ~90 | ~80 | ~100 | ~100 | ~100 | 
N.N.[Cl][Pt][Cl] [cisplatin, cis-diaminedichloroplatinum] |  |  |  |  |  |  |  |  |  | killing of cultured NuTu-19 ovarian cancer cells ([2]; incubation for 24 hours in the presence of cisplatin, FIG. 1): killed; patients who experience significant hearing loss [10]: up to 90%; Tumor Response % Complete (NuTu-19 tumors; rats that showed no sign of tumor burden): 57%; Tumor Response % Partial (NuTu-19 tumors; rats that showed some evidence of tumor burden): 43%; Tumor Response % No (NuTu-19 tumors; rats with tumors not responsive to cisplatin treatment): 0%
O=c1c2ccccc2[se]n1-c1ccccc1 [ebselen, 2-phenyl-1,2-benzoisoselenazol-3(2H)-one] | induced dose-dependant cytotoxicity | does not inhibit the ability of cisplatin to kill NuTu-19 ovarian cancer tumor cells | ~20 | ~20 | ~40 | ~0 | ~20 | ~18 | ~40 | toxicity in a non-cancer cell line (non-cancer cell line): non-toxic; effect on the chemotherapeutic activity of cisplatin and paclitaxel in multi-drug chemotherapy resistant cell lines ([1]; ES-2, SKOV-3 and OVCAR-3): enhanced the chemotherapeutic activity of cisplatin and paclitaxel; effect on the chemotherapeutic effect of cisplatin plus paclitaxel [1, 15]: enhances the chemotherapeutic effect of cisplatin plus paclitaxel; permanent threshold shift (PTS) in hearing [11]: PTS is less; adverse events in human clinical testing [12]: no adverse events were identified; protection of inner ear hair cells from damage by cisplatin (inner ear hair cells; 47 μM ebselen plus 43 μM cisplatin, 24 hours, in vitro): protects inner ear hair cells from damage by cisplatin; cytotoxic effect on cochlear inner ear cells (inner ear hair cells; ebselen 47 μM without cisplatin): does not appear to have a cytotoxic effect; percentage of outer hair cells missing in cochleae [13]: less; Percent live cells after 96 hour drug treatment [14]: ~18%
